± gives the standard deviation of the averaged measurements.

One assay relates to U-2 OS. Nature of the assay: cell painting activity score (Mahalanobis distance from DMSO wells); higher = stronger morphological phenotype. The note with it: 1.25 µM; 24 h. The gist of the method:
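In this cell painting assay, roughly 1,500 U-2 OS cells per well in 384-well plates were pin-tool treated at 37 °C for 24 h, typically at six 2-fold steps from 20 μM down to 625 nM. Cells were stained with MitoTracker, concanavalin A, phalloidin, wheat germ agglutinin, Hoechst and SYTO 14, imaged on an Opera Phenix, and analysed in CellProfiler with normalization to same-plate DMSO cells. Reported values are means of four replicate plates, with the activity score defined as the Mahalanobis distance from DMSO wells and cell count defined relative to DMSO wells.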
Regarding `O=S1(=O)C=C(Sc2nn(-c3ccccc3)c(=S)s2)c2ccccc21`, the “cell painting activity score” value stood at 11.7.
The same measure, in the same setting: for `C=CC(=O)Nc1ccc(CN2C(=O)N(c3cc(OC)cc(OC)c3)Cc3cnc(Nc4ccc(N5CCN(C)CC5)cc4)nc32)cc1` the value was 8.57.
With `CCCCCCCCCCCCCCCc1cccc(O)c1C(=O)O`, the “cell painting activity score” value stood at 3.13.
The same measure, in the same setting: for `Cl.Cl.O=C(O)Cn1nnc(-c2ccc(CN(CCCCOc3ccc(CN4CCCC4)cc3)CCc3ccccc3)cc2)n1` the value was 5.3.
The same measure, in the same setting: to `COc1cc2ncnc(Nc3ccc(F)c(Cl)c3)c2cc1NC(=O)/C=C/CN1CCCCC1` belongs 10.4; to `Cc1cc(-c2ccccc2)cc(C(=O)NNS(=O)(=O)c2ccccc2)c1F`, 7.18; to `Cn1c(=O)n(-c2ccc(C(C)(C)C#N)cc2)c2c3cc(-c4cnc5ccccc5c4)ccc3ncc21`, 12.3.
Take `CCCCCC[C@H]1C(=O)O[C@H](C)[C@H](NC(=O)c2cccc(NC=O)c2O)C(=O)O[C@@H](C)[C@@H]1OC(=O)CC(C)C`: the “cell painting activity score” value was 13.2.
For `COC(=O)[C@]1(C)CC[C@]2(C)CC[C@]3(C)C4=CC=C5C(=CC(=O)C(O)=C5C)[C@]4(C)CC[C@@]3(C)[C@@H]2C1`, the “cell painting activity score” value worked out at 33.5.

Staying with this assay, now noted: 2.5 µM; 24 h.
Regarding `O=C(Nc1nc(-c2ccccc2)ns1)c1cccs1`, the “cell painting activity score” value was found to be 2.86.
Still for that read-out and setting: for `Cc1cc2c(C(C)C)c(O)c(O)c(C=O)c2c(O)c1-c1c(C)cc2c(C(C)C)c(O)c(O)c(C=O)c2c1O` the value was 4.3; for `C=CC(=O)Nc1cc(Nc2nccc(-c3cn(C)c4ccccc34)n2)c(OC)cc1N(C)CCN(C)C`, 9.22.
In the case of `O=S1(=O)C=Cc2ccccc21`, the “cell painting activity score” value was 10.4.
Still for that read-out and setting: to `CC(=O)c1c(O)c(C)c(O)c(Cc2c(O)c3c(c(C(=O)C=Cc4ccccc4)c2O)OC(C)(C)C=C3)c1O` belongs 4.37; to `CC1(C)CC[C@]2(C(=O)n3ccnc3)CC[C@]3(C)[C@H](C(=O)C=C4[C@@]5(C)C=C(C#N)C(=O)C(C)(C)[C@@H]5CC[C@]43C)[C@@H]2C1`, 35.7; to `COC[C@H]1OC(=O)c2coc3c2[C@@]1(C)C1=C(C3=O)[C@@H]2CCC(=O)[C@@]2(C)C[C@H]1OC(C)=O`, 8.96 ± 1.1.
On to `c1ccc(Nc2nc(-c3ccccc3)ns2)cc1`, for which the “cell painting activity score” value turned out to be 4.32.
Turning to `C=CC(=O)Nc1cccc(Oc2nc(Nc3ccc(N4CCN(C)CC4)cc3OC)ncc2Cl)c1`, the “cell painting activity score” value was 10.7.
On the same count and under the same terms, for `Cn1nnnc1SC1=CS(=O)(=O)c2ccccc21` the value was 12; for `CCC(=O)N1CCN(c2ccc(-n3c(=O)ccc4cnc5ccc(-c6cnc7ccccc7c6)cc5c43)cc2C(F)(F)F)CC1`, 12.4.
The same measure, in the same setting: to `O=C1CC(Nc2ccccc2)C(=O)N1Cc1ccccc1` (stereo not drawn) belongs 3.99; to `C[C@@H]1C[C@H]2O[C@@H]2/C=C\C=C\C(=O)Cc2c(Cl)c(O)cc(O)c2C(=O)O1`, 15.2 ± 1.9.
The same measure, in the same setting: to `C=CC(=O)Nc1cc2c(Nc3ccc(F)c(Cl)c3)ncnc2cc1OCCCN1CCOCC1` belongs 27.2; to `O=C1/C(=C/c2ccc(O)c(Br)c2)CCC/C1=C\c1ccc(O)c(Br)c1`, 5.97.
On to `CNC(=O)Nc1ccc2c(c1)CC[C@@]21OC(=O)N(CC(=O)N(Cc2ccc(F)cc2)[C@@H](C)C(F)(F)F)C1=O`, for which the “cell painting activity score” value stood at 8.22.
On the same count and under the same terms, for `O=C(O[C@@H]1Cc2c(O)cc(O)cc2O[C@@H]1c1cc(O)c(O)c(O)c1)c1cc(O)c(O)c(O)c1` the value was 4.25.
Same read-out and setting: for `O=S1(=O)C=C(Sc2nn(-c3ccccc3)c(=S)s2)c2ccccc21` the value was 19.6; for `C=CC(=O)Nc1ccc(CN2C(=O)N(c3cc(OC)cc(OC)c3)Cc3cnc(Nc4ccc(N5CCN(C)CC5)cc4)nc32)cc1`, 8.77.
On the same count and under the same terms, for `CCCCCCCCCCCCCCCc1cccc(O)c1C(=O)O` the value was 3.54.
For `Cl.Cl.O=C(O)Cn1nnc(-c2ccc(CN(CCCCOc3ccc(CN4CCCC4)cc3)CCc3ccccc3)cc2)n1`, the “cell painting activity score” value was 7.08.
Still for that read-out and setting: to `COc1cc2ncnc(Nc3ccc(F)c(Cl)c3)c2cc1NC(=O)/C=C/CN1CCCCC1` belongs 11.7; to `Cc1cc(-c2ccccc2)cc(C(=O)NNS(=O)(=O)c2ccccc2)c1F`, 6.97; to `Cn1c(=O)n(-c2ccc(C(C)(C)C#N)cc2)c2c3cc(-c4cnc5ccccc5c4)ccc3ncc21`, 12.8.
Regarding `CCCCCC[C@H]1C(=O)O[C@H](C)[C@H](NC(=O)c2cccc(NC=O)c2O)C(=O)O[C@@H](C)[C@@H]1OC(=O)CC(C)C`, the “cell painting activity score” value came to 12.9.
On the same count and under the same terms, for `COC(=O)[C@]1(C)CC[C@]2(C)CC[C@]3(C)C4=CC=C5C(=CC(=O)C(O)=C5C)[C@]4(C)CC[C@@]3(C)[C@@H]2C1` the value was 32.8.

The assay is the same for the next values; noted with them: 5 µM; 24 h.
For `O=C(Nc1nc(-c2ccccc2)ns1)c1cccs1`, the “cell painting activity score” value is 3.95.
The same measure, in the same setting: for `Cc1cc2c(C(C)C)c(O)c(O)c(C=O)c2c(O)c1-c1c(C)cc2c(C(C)C)c(O)c(O)c(C=O)c2c1O` the value was 5.05; for `C=CC(=O)Nc1cc(Nc2nccc(-c3cn(C)c4ccccc34)n2)c(OC)cc1N(C)CCN(C)C`, 9.78; for `O=S1(=O)C=Cc2ccccc21`, 10.2.
Regarding `CC(=O)c1c(O)c(C)c(O)c(Cc2c(O)c3c(c(C(=O)C=Cc4ccccc4)c2O)OC(C)(C)C=C3)c1O`, the “cell painting activity score” value was determined as 3.79.
Same read-out and setting: for `CC1(C)CC[C@]2(C(=O)n3ccnc3)CC[C@]3(C)[C@H](C(=O)C=C4[C@@]5(C)C=C(C#N)C(=O)C(C)(C)[C@@H]5CC[C@]43C)[C@@H]2C1` the value was 33.9.
Regarding `COC[C@H]1OC(=O)c2coc3c2[C@@]1(C)C1=C(C3=O)[C@@H]2CCC(=O)[C@@]2(C)C[C@H]1OC(C)=O`, the “cell painting activity score” value was 9.66 ± 1.
On the same count and under the same terms, for `c1ccc(Nc2nc(-c3ccccc3)ns2)cc1` the value was 5.01.

The record behind these values is the supplement of paper PMC10011410.
